# Test results as given in patent US6670446B1, “N1 modified glycopeptides” (Eli Lilly and Company, priority 1998, dated 2003).
# What was measured:
# Type in all cases: cell-based
# [1] = tested on: Resistant Enterococcus faecium and faecalis; assay: MIC, standard broth micro-dilution assay, Resistant; conditions: geometric mean of 4-6 isolates
# Method: (§1) The antibacterial efficacy of the present compounds is illustrated by Table III. The minimal inhibitory concentrations (MICs) were determined using a standard broth micro-dilution assay.
# [2] = tested on: Sensitive Enterococcus faecium and faecalis; assay: MIC, standard broth micro-dilution assay, Sensitive; conditions: geometric mean of 4-6 isolates
# Method: as §1
# [3] = tested on: Staphylococcus aureus 446; assay: MIC, standard broth micro-dilution assay, SA 446
# Method: as §1
# [4] = tested on: Staphylococcus aureus 489; assay: MIC, standard broth micro-dilution assay, SA 489
# Method: as §1
# [5] = tested on: Staphylococcus aureus 447; assay: MIC, standard broth micro-dilution assay, SA 447
# Method: as §1
# [6] = tested on: Staphylococcus aureus X400; assay: MIC, standard broth micro-dilution assay, SA X400
# Method: as §1
# [7] = tested on: Staphylococcus aureus X778; assay: MIC, standard broth micro-dilution assay, SA X778
# Method: as §1
# [8] = tested on: Staphylococcus aureus 491; assay: MIC, standard broth micro-dilution assay, SA 491
# Method: as §1
# [9] = tested on: Staphylococcus aureus S13E
# Method: as §1
# [10] = tested on: Staphylococcus aureus SA1199; assay: MIC, standard broth micro-dilution assay, SA 1199
# Method: as §1
# [11] = tested on: Staphylococcus aureus SA1199A; assay: MIC, standard broth micro-dilution assay, SA 1199A
# Method: as §1
# [12] = tested on: Staphylococcus haemolyticus 105; assay: MIC, standard broth micro-dilution assay, SH 105
# Method: as §1
# [13] = tested on: Staphylococcus haemolyticus 415; assay: MIC, standard broth micro-dilution assay, SH 415
# Method: as §1
# [14] = tested on: Staphylococcus epidermidis 270; assay: MIC, standard broth micro-dilution assay, SE 270
# Method: as §1
# Enterococcus faecium 180 = assay: MIC, standard broth micro-dilution assay, EF 180
# Method: as §1
# [15] = tested on: Enterococcus faecium 180-1; assay: MIC, standard broth micro-dilution assay, EF 180-1
# Method: as §1
# [16] = tested on: Enterococcus faecalis 2041; assay: MIC, standard broth micro-dilution assay, EF 2041
# Method: as §1
# [17] = tested on: Enterococcus faecalis 276; assay: MIC, standard broth micro-dilution assay, EF 276
# Method: as §1
# [18] = tested on: Enterococcus gallinarum 245; assay: MIC, standard broth micro-dilution assay, EG 245
# Method: as §1
# [19] = tested on: Haemophilus influenzae RD; assay: MIC, standard broth micro-dilution assay, HFRD
# Method: as §1
# Escherichia coli EC14 = assay: MIC, standard broth micro-dilution assay, EC 14
# Method: as §1
compound,measurement,setting,value
"CC(C)C(C(=O)NC1C(=O)NC(CC(N)=O)C(=O)NC2C(=O)NC3C(=O)NC(C(=O)NC(C(=O)O)c4cc(O)cc(O)c4-c4cc3ccc4O)C(OC3CC(C)(N)C(O)C(C)O3)c3ccc(c(Cl)c3)Oc3cc2cc(c3OC2OC(CO)C(O)C(O)C2OC2CC(C)(N)C(O)C(C)O2)Oc2ccc(cc2Cl)C1O)N(C)C(=O)OC(C)(C)C [Example 41, N^1-(N-BOC-N-methyl-D-valine) derivative of desleucylA82846B]","minimal inhibitory concentration (MIC), Resistant",[1],>128
same,"minimal inhibitory concentration (MIC), Sensitive",[2],84
same,"minimal inhibitory concentration (MIC), SA 446",[3],32
same,"minimal inhibitory concentration (MIC), SA 489",[4],16
same,"minimal inhibitory concentration (MIC), SA 447",[5],32
same,"minimal inhibitory concentration (MIC), SA X400",[6],16
same,"minimal inhibitory concentration (MIC), SA X778",[7],8
same,"minimal inhibitory concentration (MIC), SA 491",[8],4
same,"minimal inhibitory concentration (MIC), SA S13E",[9],16
same,"minimal inhibitory concentration (MIC), SA 1199",[10],16
same,"minimal inhibitory concentration (MIC), SA 1199A",[11],8
same,"minimal inhibitory concentration (MIC), SH 105",[12],16
same,"minimal inhibitory concentration (MIC), SH 415",[13],64
same,"minimal inhibitory concentration (MIC), SE 270",[14],8
same,"minimal inhibitory concentration (MIC), EF 180",Enterococcus faecium 180,>64
same,"minimal inhibitory concentration (MIC), EF 180-1",[15],4
same,"minimal inhibitory concentration (MIC), EF 2041",[16],8
same,"minimal inhibitory concentration (MIC), EF 276",[17],8
same,"minimal inhibitory concentration (MIC), EG 245",[18],>64
same,"minimal inhibitory concentration (MIC), HFRD",[19],no
same,"minimal inhibitory concentration (MIC), EC 14",Escherichia coli EC14,>64
